Experimental data as given in patent publication US10750743B2, “Pyridazinone herbicides” (E.I. DU PONT DE NEMOURS AND COMPANY, priority 2015, dated 2020).

Assays:
Type in all cases: in vivo
[1] = system: corn (Zea mays); test: Test A postemergence application, visual injury rating; conditions: for Corn plant response rating: 0 to 100 scale, 0 no effect, 100 complete control
Method in brief: (§1)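 Compounds in a surfactant-containing solvent were applied as a directed soil spray preemergence, or postemergence to plants 2-10 cm tall at the one- to two-leaf stage, in loam-sand blend. After about 10 d in the greenhouse, injury was rated visually against untreated controls on a 0-100 scale (100 = complete control).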

[2] = system: kochia (Kochia scoparia); test: as above; conditions: for Kochia plant response rating: 0 to 100 scale, 0 no effect, 100 complete control
Method in brief: as §1

[3] = system: pigweed (Amaranthus retroflexus); test: as above; conditions: for Pigweed plant response rating: 0 to 100 scale, 0 no effect, 100 complete control
Method in brief: as §1

[4] = system: wheat (Triticum aestivum); test: as above; conditions: for Wheat plant response rating: 0 to 100 scale, 0 no effect, 100 complete control
Method in brief: as §1

[5] = system: ryegrass, It. (Italian ryegrass, Lolium multiflorum); test: as above; conditions: for Ryegrass, It. plant response rating: 0 to 100 scale, 0 no effect, 100 complete control
Method in brief: as §1

[6] = system: ragweed (common ragweed, Ambrosia elatior); test: as above; conditions: for Ragweed plant response rating: 0 to 100 scale, 0 no effect, 100 complete control
Method in brief: as §1

[7] = system: galium (catchweed bedstraw, Galium aparine); test: as above; conditions: for Galium plant response rating: 0 to 100 scale, 0 no effect, 100 complete control
Method in brief: as §1

[8] = system: Foxtail, Green; test: as above; conditions: for Foxtail, Green plant response rating: 0 to 100 scale, 0 no effect, 100 complete control
Method in brief: as §1

[9] = system: blackgrass (Alopecurus myosuroides); test: as above; conditions: 0 to 100 scale, 0 no effect, 100 complete control
Method in brief: as §1

[10] = system: barnyardgrass (Echinochloa crus-galli); test: as above; conditions: 0 to 100 scale, 0 no effect, 100 complete control
Method in brief: as §1

[11] = system: sedge, umbrella (small-flower umbrella sedge, Cyperus difformis); test: Test B flooded paddy test, visual rating; conditions: Flood, 250 g ai/ha, applied to paddy water, rated after 13 to 15 d
Method in brief: (§2)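 Plants grown to the 2-leaf stage. At treatment, pots were flooded to 3 cm above the soil, compound was applied directly to the paddy water, and that depth was held throughout. After 13 to 15 d in the greenhouse, response was rated visually against controls on a 0 (no effect) to 100 (complete control) scale.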

[12] = system: ducksalad (Heteranthera limosa); test: Test B flooded paddy test, visual rating; conditions: Flood, 250 g ai/ha, applied to paddy water, rated after 13 to 15 d
Method in brief: as §2

[13] = system: rice (Oryza sativa); test: Test B flooded paddy test, visual rating; conditions: Flood, 250 g ai/ha, applied to paddy water, rated after 13 to 15 d
Method in brief: as §2

[14] = system: barnyardgrass (Echinochloa crus-galli); test: Test B flooded paddy test, visual rating; conditions: Flood, 250 g ai/ha, applied to paddy water, rated after 13 to 15 d
Method in brief: as §2

[15] = system: kochia (Kochia scoparia); test: Test A preemergence, directed soil spray, visual injury rating; conditions: 0 is no effect, 100 is complete control
Method in brief: as §1

[16] = system: pigweed (Amaranthus retroflexus); test: as above; conditions: 0 is no effect, 100 is complete control
Method in brief: as §1

[17] = system: ryegrass, It. (Italian ryegrass, Lolium multiflorum); test: as above; conditions: 0 is no effect, 100 is complete control
Method in brief: as §1

[18] = system: ragweed (common ragweed, Ambrosia elatior); test: as above; conditions: 0 is no effect, 100 is complete control
Method in brief: as §1

[19] = system: Foxtail, Green; test: as above; conditions: 0 is no effect, 100 is complete control
[20] = system: barnyardgrass (Echinochloa crus-galli); test: as above; conditions: 0 is no effect, 100 is complete control
Method in brief: as §1

[21] = 31 g ai/ha, 0 is no effect, 100 is complete control

SMILES | Corn plant response rating ([1]; 125 g ai/ha) | Kochia plant response rating ([2]; 125 g ai/ha) | Pigweed plant response rating ([3]; 125 g ai/ha) | Wheat plant response rating ([4]; 125 g ai/ha) | Ryegrass, It. plant response rating ([5]; 125 g ai/ha) | Ragweed plant response rating ([6]; 125 g ai/ha) | Galium plant response rating ([7]; 125 g ai/ha) | Foxtail, Green plant response rating ([8]; 125 g ai/ha) | Blackgrass plant response rating ([9]; 125 g ai/ha) | Barnyardgrass plant response rating ([10]; 31 g ai/ha) | Barnyardgrass plant response rating ([10]; 125 g ai/ha) | Sedge, Umbrella plant response rating (0 to 100 scale, 0 is no effect, 100 is complete control) [11] | Ducksalad plant response rating (0 to 100 scale, 0 is no effect, 100 is complete control) [12] | Rice plant response rating (0 to 100 scale, 0 is no effect, 100 is complete control) [13] | Barnyardgrass plant response rating (0 to 100 scale, 0 is no effect, 100 is complete control) [14] | Plant response rating (0 to 100 scale), Kochia ([15]; 31 g ai/ha) | Plant response rating (0 to 100 scale), Kochia ([15]; 125 g ai/ha) | Plant response rating (0 to 100 scale), Pigweed ([16]; 31 g ai/ha) | Plant response rating (0 to 100 scale), Pigweed ([16]; 125 g ai/ha) | Plant response rating (0 to 100 scale), Ryegrass, It. ([17]; 31 g ai/ha) | further results
Cc1nn(C)c(=O)c(-c2c(Br)ccc3c2cnn3C)c1O [Compound 65] | 0 | 0 | 0 | 0 | 0 | 0 | 0 | 0 | 0 | 0 | 0 | 0 | 0 | 0 | 0 | 0 | 0 | 0 | 0 | 0 | Plant response rating (0 to 100 scale), Corn [1, 21]: 0; Plant response rating (0 to 100 scale), Kochia [2, 21]: 0; Plant response rating (0 to 100 scale), Pigweed [3, 21]: 0; Plant response rating (0 to 100 scale), Wheat [4, 21]: 0; Plant response rating (0 to 100 scale), Ryegrass, It. [5, 21]: 0; Plant response rating (0 to 100 scale), Ragweed [6, 21]: 0; Plant response rating (0 to 100 scale), Galium [7, 21]: 0; Plant response rating (0 to 100 scale), Foxtail, Green [8, 21]: 0; Blackgrass plant response rating ([9]; 31 g ai/ha): 0; Plant response rating (0 to 100 scale), Ryegrass, It. ([17]; 125 g ai/ha): 0; Plant response rating (0 to 100 scale), Ragweed ([18]; 31 g ai/ha): 0; Plant response rating (0 to 100 scale), Ragweed ([18]; 125 g ai/ha): 0; Plant response rating (0 to 100 scale), Foxtail, Green ([19]; 31 g ai/ha): 0; Plant response rating (0 to 100 scale), Foxtail, Green ([19]; 125 g ai/ha): 0; Plant response rating (0 to 100 scale), Barnyardgrass ([20]; 31 g ai/ha): 0; Plant response rating (0 to 100 scale), Barnyardgrass ([20]; 125 g ai/ha): 0
CC(=O)Oc1c(C)nn(C)c(=O)c1-c1c(C(F)(F)F)ccc2cc(C)oc12 [Compound 48] | 20 | 70 | 100 | 0 | 30 | 90 | 80 | 10 | 0 | 0 | 10 | 0 | 0 | 0 | 0 | 10 | 20 | 20 | 100 | 10 | Corn plant response rating ([1]; 31 g ai/ha): 0; Kochia plant response rating ([2]; 31 g ai/ha): 50; Pigweed plant response rating ([3]; 31 g ai/ha): 70; Wheat plant response rating ([4]; 31 g ai/ha): 0; Ryegrass, It. plant response rating ([5]; 31 g ai/ha): 0; Ragweed plant response rating ([6]; 31 g ai/ha): 70; Galium plant response rating ([7]; 31 g ai/ha): 80; Foxtail, Green plant response rating ([8]; 31 g ai/ha): 0; Blackgrass plant response rating ([9]; 31 g ai/ha): 0; Plant response rating (0 to 100 scale), Ryegrass, It. ([17]; 125 g ai/ha): 20; Plant response rating (0 to 100 scale), Ragweed ([18]; 31 g ai/ha): 0; Plant response rating (0 to 100 scale), Ragweed ([18]; 125 g ai/ha): 90; Plant response rating (0 to 100 scale), Foxtail, Green ([19]; 31 g ai/ha): 0; Plant response rating (0 to 100 scale), Foxtail, Green ([19]; 125 g ai/ha): 20; Plant response rating (0 to 100 scale), Barnyardgrass ([20]; 31 g ai/ha): 0; Plant response rating (0 to 100 scale), Barnyardgrass ([20]; 125 g ai/ha): 20
CCC(=O)Oc1c(C)nn(C)c(=O)c1-c1c(C(F)(F)F)ccc2cc(C)oc12 [Compound 47] | 0 | 70 | 90 | 0 | 30 | 80 | 80 | 10 | 0 | 0 | 10 | 0 | 0 | 0 | 0 | 40 | 50 | 60 | 100 | 0 | Corn plant response rating ([1]; 31 g ai/ha): 0; Kochia plant response rating ([2]; 31 g ai/ha): 40; Pigweed plant response rating ([3]; 31 g ai/ha): 90; Wheat plant response rating ([4]; 31 g ai/ha): 0; Ryegrass, It. plant response rating ([5]; 31 g ai/ha): 0; Ragweed plant response rating ([6]; 31 g ai/ha): 40; Galium plant response rating ([7]; 31 g ai/ha): 70; Foxtail, Green plant response rating ([8]; 31 g ai/ha): 0; Plant response rating (0 to 100 scale), Ryegrass, It. ([17]; 125 g ai/ha): 80; Plant response rating (0 to 100 scale), Ragweed ([18]; 31 g ai/ha): 20; Plant response rating (0 to 100 scale), Ragweed ([18]; 125 g ai/ha): 80; Plant response rating (0 to 100 scale), Foxtail, Green ([19]; 31 g ai/ha): 0; Plant response rating (0 to 100 scale), Foxtail, Green ([19]; 125 g ai/ha): 0; Plant response rating (0 to 100 scale), Barnyardgrass ([20]; 31 g ai/ha): 0; Plant response rating (0 to 100 scale), Barnyardgrass ([20]; 125 g ai/ha): 30
